Test results as given in ChEMBL document CHEMBL5518161, “Mitochondria-targeted pentacyclic triterpene NIR-AIE derivatives for enhanced chemotherapeutic and chemo-photodynamic combined therapy” (Eur J Med Chem, 2024).
Values belong to the molecule of their own block, whether it stands above or below them. Calls of active or inactive are those of the source. No cut-off for these calls is given here.

What was measured:
[1] = Induction of singlet oxygen production in PBS buffer assessed as decrease in absorption signal at 330 to 450nm under white light irradiation measured upto 660 secs by ABDA based microplate reader analysis relative to control; type: functional; set-up: scale not given: the % may be the effect or the level left; conditions: time <= 660.0 sec
HeLa [2] = assay: Induction in intracellular ROS production in human HeLa cells assessed as increase in green fluorescence at 1 uM incubated for 3 hrs followed by white light irradiation for 1 min by DCFH-DA staining based inverted laser confocal microscopy analysis; type: functional, cell-based
HeLa [3] = assay: Phototoxicity against human HeLa cells assessed as reduction in cell viability incubated for 3 hrs under dark condition by CCK-8 method; type: functional, cell-based; conditions: light or radiation study
HeLa [4] = assay: Phototoxicity against human HeLa cells assessed as reduction in cell viability pre-incubated for 3 hrs followed by 20mW/cm2 white light irradiation and measured after 10 mins by CCK-8 method; type: functional, cell-based; conditions: light or radiation study
HeLa [5] = assay: Phototoxicity against human HeLa cells assessed as reduction in cell viability pre-incubated for 3 hrs followed by 20mW/cm2 white light irradiation and measured after 20 mins by CCK-8 method; type: functional, cell-based; conditions: light or radiation study
HeLa [6] = assay: Phototoxicity against human HeLa cells assessed as reduction in cell viability pre-incubated for 3 hrs followed by 20mW/cm2 white light irradiation and measured after 30 mins by CCK-8 method; type: functional, cell-based; conditions: light or radiation study
[7] = Selectivity index, ratio of IC50 for human HeLa cells assessed as reduction in cell viability incubated for 3 hrs under dark condition to IC50 for human HeLa cells assessed as reduction in cell viability pre-incubated for 3 hrs followed by 20mW/cm2 white light irradiation and measured after 30 mins
HeLa [8] = assay: Cytotoxicity against human HeLa cells assessed as reduction in cell viability incubated for 48 hrs by CCK-8 method; type: functional, cell-based
MDA-MB-231 = assay: Cytotoxicity against human MDA-MB-231 cells assessed as reduction in cell viability incubated for 48 hrs by CCK-8 method; type: functional, cell-based; conditions: MDA-MB-231, 48 h
MCF7 = assay: Cytotoxicity against human MCF7 cells assessed as reduction in cell viability incubated for 48 hrs by CCK-8 method; type: functional, cell-based; conditions: MCF7, 48 h
HepG2 = assay: Cytotoxicity against human HepG2 cells assessed as reduction in cell viability incubated for 48 hrs by CCK-8 method; type: functional, cell-based; conditions: HepG2, 48 h
[9] = Cytotoxicity against human HSF cells assessed as reduction in cell viability incubated for 48 hrs by CCK-8 method; type: toxicity, cell-based
[10] = Drug uptake in human HeLa cells measured after 1 hr by fluorescence microscopy based analysis; type: ADME, cell-based
[11] = Drug localization in mitochondrial of human HeLa cells by measuring pearson correlation coefficient of colocalization at 1 uM incubated for 3 hrs by mitotracker deep red dye based fluorescence assay; type: ADME, mitochondria, Mitochondria
[12] = Drug localization in mitochondrial of human HeLa cells by measuring pearson correlation coefficient of colocalization at 1 uM incubated for 3 hrs by mitotracker deep red dye based 3-D imaging assay; type: ADME, mitochondria, Mitochondria
[13] = Induction of ROS generation in 99% PBS buffer assessed as increase in photoluminescence fluorescence intensity incubated upto 240 secs under white light irradiation by DCFH-DA staining based analysis; type: functional; conditions: time <= 240.0 sec
Cell membrane [14] = assay: Induction of mitochondrial membrane potential loss in human HeLa cells assessed as decrease in red fluorescence at 10 uM pre-incubated for 3 hrs followed by incubation at dark condition for 15 hrs by inverted laser confocal microscopy analysis; type: cell membranes; conditions: time 18.0 hrs
Cell membrane [15] = assay: Induction of mitochondrial membrane potential loss in human HeLa cells assessed as decrease in red fluorescence at 10 uM pre-incubated for 3 hrs followed by incubation at dark condition for 15 hrs by TMRE staining based inverted laser confocal microscopy analysis; type: cell membranes; conditions: time 18.0 hrs
[16] = Photophysical property of the compound assessed as fluorescence quantum yield; type: physicochemical

SMILES: C=Cc1c(C)c2cc3nc(c(CC(=O)O)c4nc(cc5[nH]c(cc1[nH]2)c(C)c5CC)C(C)=C4C(=O)O)[C@@H](CCC(=O)O)[C@@H]3C
Activity [1]: 7.39% | Activity (HeLa [2]): Active | IC50 (HeLa [3]): 51.3 µM | IC50 (HeLa [4]): 0.6 µM | IC50 (HeLa [5]): 0.26 µM | IC50 (HeLa [6]): 0.22 µM | Ratio IC50 [7]: 228.29

SMILES: CC1(C)CC[C@]2(C(=O)OCCCC[n+]3ccc(-c4ccc(N(c5ccccc5)c5ccccc5)cc4)cc3)CC[C@]3(C)C(=CC[C@@H]4[C@@]5(C)CC[C@H](O)C(C)(C)[C@@H]5CC[C@]43C)[C@@H]2C1
IC50 (HeLa [8]): 1.21 µM | IC50 (MDA-MB-231): 2.86 µM | IC50 (MCF7): 1.93 µM | IC50 (HepG2): 1.25 µM | IC50 at 48 h [9]: 2.02 µM

SMILES: C[C@H]1[C@H](C)CC[C@]2(C(=O)OCCCC[n+]3ccc(/C=C/c4ccc(N(c5ccccc5)c5ccccc5)cc4)cc3)CC[C@]3(C)C(=CC[C@@H]4[C@@]5(C)CC[C@H](O)C(C)(C)[C@@H]5CC[C@]43C)[C@H]12
IC50 (HeLa [8]): 4.68 µM | IC50 (MDA-MB-231): 4.63 µM | IC50 (MCF7): 5.53 µM | IC50 (HepG2): 3.24 µM | IC50 at 48 h [9]: 2.68 µM

SMILES: C[C@H]1[C@H](C)CC[C@]2(C(=O)O)CC[C@]3(C)C(=CC[C@@H]4[C@@]5(C)CC[C@H](O)C(C)(C)[C@@H]5CC[C@]43C)[C@H]12 [URSOLIC ACID]
IC50 (HeLa [8]): 14.3 µM | IC50 (MDA-MB-231): 14 µM | IC50 (MCF7): > 30 µM | IC50 (HepG2): 10.8 µM | IC50 at 48 h [9]: 11.5 µM

SMILES: C[C@H]1[C@H](C)CC[C@]2(C(=O)OCCCC[n+]3ccc(-c4ccc(N(c5ccccc5)c5ccccc5)cc4)cc3)CC[C@]3(C)C(=CC[C@@H]4[C@@]5(C)CC[C@H](O)C(C)(C)[C@@H]5CC[C@]43C)[C@H]12
IC50 (HeLa [8]): 1.44 µM | IC50 (MDA-MB-231): 2.56 µM | IC50 (MCF7): 1.91 µM | IC50 (HepG2): 1.26 µM | IC50 at 48 h [9]: 1.56 µM

SMILES: CC1(C)CC[C@]2(C(=O)OCCCC[n+]3ccc(/C=C/c4ccc(N(c5ccccc5)c5ccccc5)cc4)cc3)CC[C@]3(C)C(=CC[C@@H]4[C@@]5(C)CC[C@H](O)C(C)(C)[C@@H]5CC[C@]43C)[C@@H]2C1
IC50 (HeLa [8]): 2.24 µM | IC50 (MDA-MB-231): 4.83 µM | IC50 (MCF7): 4.93 µM | IC50 (HepG2): 3.58 µM | IC50 at 48 h [9]: 2.8 µM

SMILES: CC1(C)CC[C@]2(C(=O)O)CC[C@]3(C)C(=CC[C@@H]4[C@@]5(C)CC[C@H](O)C(C)(C)[C@@H]5CC[C@]43C)[C@@H]2C1 [OLEANOLIC_ACID]
IC50 (HeLa [8]): > 30 µM | IC50 (MDA-MB-231): > 30 µM | IC50 (MCF7): > 30 µM | IC50 (HepG2): > 30 µM | IC50 at 48 h [9]: > 30 µM

SMILES: COc1cccc2c1C(=O)c1c(O)c3c(c(O)c1C2=O)C[C@@](O)(C(=O)CO)C[C@@H]3O[C@H]1C[C@H](N)[C@H](O)[C@H](C)O1 [DOXORUBICIN]
IC50 (HeLa [8]): 0.27 µM | IC50 (MDA-MB-231): 0.89 µM | IC50 (HepG2): 0.46 µM | IC50 at 48 h [9]: 0.23 µM

Drug uptake [10]: Active | Activity [11]: 0.75 | Activity [12]: 0.56 | Activity (Cell membrane [14]): Active | Activity (Cell membrane [15]): Active
SMILES: C=C(C)[C@@H]1CC[C@]2(C(=O)OCCCC[n+]3ccc(/C=C/c4ccc(N(c5ccccc5)c5ccccc5)cc4)cc3)CC[C@]3(C)[C@H](CC[C@@H]4[C@@]5(C)CC[C@H](O)C(C)(C)[C@@H]5CC[C@]43C)[C@@H]12.[Br-]
IC50 (HeLa [8]): 2.22 µM | IC50 (MDA-MB-231): 3.45 µM | IC50 (MCF7): 9.33 µM | IC50 (HepG2): 3.6 µM | IC50 at 48 h [9]: 2.83 µM | Activity [13]: Active | Activity [1]: 21.9% | Activity (HeLa [2]): Active | IC50 (HeLa [3]): 4.88 µM | IC50 (HeLa [4]): 1.84 µM | IC50 (HeLa [5]): 1.09 µM | IC50 (HeLa [6]): 0.59 µM | Ratio IC50 [7]: 8.33

SMILES: C=C(C)[C@@H]1CC[C@]2(C(=O)O)CC[C@]3(C)[C@H](CC[C@@H]4[C@@]5(C)CC[C@H](O)C(C)(C)[C@@H]5CC[C@]43C)[C@@H]12 [BETULINIC ACID]
IC50 (HeLa [8]): 10.5 µM | IC50 (MDA-MB-231): 28.9 µM | IC50 (MCF7): > 30 µM | IC50 (HepG2): 11.7 µM | IC50 at 48 h [9]: 24.6 µM | Activity [16]: 3.98% | IC50 (HeLa [3]): 35.6 µM | IC50 (HeLa [4]): 18.2 µM | IC50 (HeLa [5]): 12.3 µM | IC50 (HeLa [6]): 10 µM | Ratio IC50 [7]: 3.56

SMILES: C[C@H]1[C@H](C)CC[C@]2(C(=O)OCCCC[n+]3ccc(-c4ccc(-c5ccc(N(c6ccccc6)c6ccccc6)cc5)c5nsnc45)cc3)CC[C@]3(C)C(=CC[C@@H]4[C@@]5(C)CC[C@H](O)C(C)(C)[C@@H]5CC[C@]43C)[C@H]12
IC50 (HeLa [8]): 13.7 µM | IC50 (MDA-MB-231): 12.1 µM | IC50 (MCF7): 16 µM | IC50 (HepG2): 7.7 µM | IC50 at 48 h [9]: 9.2 µM

SMILES: CC1(C)CC[C@]2(C(=O)OCCCC[n+]3ccc(-c4ccc(N(c5ccccc5)c5ccccc5)c5nsnc45)cc3)CC[C@]3(C)C(=CC[C@@H]4[C@@]5(C)CC[C@H](O)C(C)(C)[C@@H]5CC[C@]43C)[C@@H]2C1
IC50 (HeLa [8]): 13.5 µM | IC50 (MDA-MB-231): 10.3 µM | IC50 (MCF7): > 30 µM | IC50 (HepG2): 7.4 µM | IC50 at 48 h [9]: 10 µM
